{
  "source": "patent US9745334B2",
  "about": "“Cytotoxic-drug delivering molecules targeting HIV (CDM-Hs), cytotoxic activity against the human immunodeficiency virus and methods of use” (YALE UNIVERSITY, priority 2012, dated 2017)",
  "key": {"CHO-pSV (gp120−) cells": {"tested_on": "CHO-pSV (gp120−) cells", "experiment": "Cell cytotoxicity assay (CellTiter Glo), CHO-pSV", "format": "cell-based", "conditions": "14 h incubation; concentrations as high as 67 μM", "description": "(§1) Wild-type HIV-1 env expressing CHO-env cells and CHO-pSv (env negative isogenic control) were a gift from Dr. Edward Berger (NIH), however, they were developed by Nicholas and coworkers.^55 CHO-pSv cells were grown in DMEM base media described below while CHO-env cells were grown in selection medium, which consists of base medium containing 0.25 μM methotrexate (MTX, Aldrich). *Note: Decrease in envelope expression in CHO-env cells was observed upon several passages and it is recommended to maintain low passage stocks of cells in liquid nitrogen.\n(§2) Cell Cytotoxicity Assay (CellTiter Glo)\n(§3) ***Note: all incubations and dilutions in CHO-culture media (+MTX for CHO-env)\n(§4) ***All incubations performed in 96-well plates (clear bottom, black sides; Costar#3603) in triplicate at 37° C., 5% CO2 in moist environment.\n(§5) Confluent (˜80%) T-75 flasks of CHO-env and/or CHO-pSv were washed once with DPBS (3 mL), detached, counted and then centrifuged. […]\n(§6) Serial dilutions (1/6) of molecules made in empty 96-well plates using multichannel pipette, and then transferred to plates containing seeded cells (50 μL). […] Luminescence monitored on Biotek Synergy 2 microplate reader.\n(§7) % cytotoxicity above background calculated by the following formulas: % CDC=[100−((sample−max kill)/(no molecule−max kill))*100] […]"}, "CHO-env (gp120+) cells": {"tested_on": "CHO-env (gp120+) cells", "experiment": "Cell cytotoxicity assay (CellTiter Glo), CHO-env", "format": "cell-based", "conditions": "14 h; at 310 nM and 1.85 μM", "description": "as §1, §2, §3, §4, §5, §6, §7"}},
  "data": [
    {"smiles": "COc1cccc2c1C(=O)c1c(O)c3c(c(O)c1C2=O)C[C@@](O)(C(=O)CO)C[C@@H]3O[C@H]1C[C@H](N)[C@H](O)[C@H](C)O1", "note": "[doxorubicin]", "values": [
      {"measurement": "non-specific cytotoxicity", "setting": "CHO-pSV (gp120−) cells", "value": "non-specifically toxic"},
      {"measurement": "toxicity at low concentrations", "setting": "CHO-env (gp120+) cells", "value": "no toxicity was observed"}
    ]}
  ]
}
